A short description of series [1]: Chemical stability of compound at 50 to 500 mg/L at pH 8.8 after 24 hrs at room temperature by LC-MS analysis. Type of series: physicochemical. Particulars: buffer, pH 8.8, 24 h.
For series [2], the system named is Bacillus subtilis. The series can be described thus: Antibacterial activity against Bacillus subtilis assessed as inhibition of peptidoglycan synthesis at 2 mg/L after 50 mins by [3H]-N-acetylglucosamine incorporation assay. It is filed as functional.
For series [3], the system named is Lipid bilayer. As to the kind of experiment: Binding affinity to DOPC large unilamellar vesicle assessed as carboxyfluorescein leakage at 10 to 20 ug/ml after 20 secs by fluorescence-based assay relative to control.
The test system of series [4] is Lipid bilayer. As to the kind of experiment: Binding affinity to DOPG large unilamellar vesicle assessed as carboxyfluorescein leakage at 10 ug/ml after 20 secs by fluorescence-based assay relative to control.
The subject of series [5] is Bacillus subtilis. As to the kind of experiment: Antibacterial activity against Bacillus subtilis assessed as inhibition of plasma membrane lipids synthesis at 2 mg/L after 50 mins by [3H]-sodium acetate incorporation assay. Type of series: functional.
Series [6] has as its system Lipid bilayer. The series can be described thus: Binding affinity to DOPG large unilamellar vesicle assessed as carboxyfluorescein leakage at 10 mg/L after 20 secs by fluorescence-based assay relative to control.
The next series deals with BJ. The series can be described thus: Cytotoxicity against human BJ cells assessed as reduction in cell viability after 48 hrs by ATPlite reagent based assay.
The next series deals with Streptococcus agalactiae. As to the kind of experiment: Antibacterial activity against Streptococcus agalactiae after 24 hrs by microdilution method. Type of series: functional.
Series [7] is described as follows: Chemical stability of compound at 50 to 500 mg/L at pH 8.8 after 24 hrs at 37 degC by LC-MS analysis. Particulars: buffer, pH 8.8, 24 h. Type of series: physicochemical.
Series [8] deals with Staphylococcus aureus. As to the kind of experiment: Antibacterial activity against Staphylococcus aureus CCM 4223 after 24 hrs by microdilution method. Particulars: CCM 4223, 24 h. It is filed as functional. (In general: Broth dilution looks for growth in wells or tubes with falling amounts of substance.)
Series [9] concerns TERT-RPE1. The series can be described thus: Cytotoxicity against human RPE1 cells assessed as reduction in cell viability after 48 hrs by ATPlite reagent based assay. Particulars: tert-rpe1, 48 h.
For a further series, the system named is Burkholderia multivorans. The series can be described thus: Antibacterial activity against Burkholderia multivorans after 24 hrs by microdilution method. It is filed as functional.
The test system of series [10] is Staphylococcus aureus. As to the kind of experiment: Antibacterial activity against methicillin-resistant Staphylococcus aureus 4591 clinical isolates after 24 hrs by microdilution method. It is filed as functional. The settings on record: Staphylococcus aureus, 4591, 24 h.
Series [11] deals with Bacillus subtilis. As to the kind of experiment: Antibacterial activity against Bacillus subtilis assessed as inhibition of protein synthesis at 2 mg/L after 50 mins by [35S]-methionine incorporation assay. It is filed as functional.
The subject of series [12] is Bacillus subtilis. The series can be described thus: Antibacterial activity against Bacillus subtilis after 24 hrs by microdilution method. Type of series: functional.
For series [13], the system named is Escherichia coli. As to the kind of experiment: Antibacterial activity against Escherichia coli 16702 after 24 hrs by microdilution method. The settings on record: Escherichia coli, 16702, 24 h. Type of series: functional.
The test system of series [14] is Escherichia coli. The series can be described thus: Antibacterial activity against Escherichia coli CCM 3954 after 24 hrs by microdilution method. It is filed as functional. The settings on record: CCM 3954, 24 h.
Series [15] relates to Staphylococcus epidermidis. The series can be described thus: Antibacterial activity against Staphylococcus epidermidis 8700/B after 24 hrs by microdilution method. Type of series: functional.
The next series deals with Enterococcus faecalis. As to the kind of experiment: Antibacterial activity against Enterococcus faecalis CCM 4224 after 24 hrs by microdilution method. It is filed as functional. The settings on record: CCM 4224, 24 h.
For series [16], the system named is Pseudomonas aeruginosa. As to the kind of experiment: Antibacterial activity against Pseudomonas aeruginosa 16575 after 24 hrs by microdilution method. It is filed as functional. Particulars: Pseudomonas aeruginosa, 16575, 24 h.
The test system of series [17] is HepG2. As to the kind of experiment: Induction of apoptosis in human HepG2 cells assessed as caspase 3/7 activation up to 80 mg/L after 4 hrs by caspase-Glo 3/7 luminescent assay. The settings on record: hepg2, 4 h. Type of series: cell-based.
Another series concerns Enterococcus faecium. The series can be described thus: Antibacterial activity against vancomycin-resistant Enterococcus faecium 419/ana clinical isolates after 24 hrs by microdilution method. Type of series: functional.
Another series relates to Acinetobacter baumannii. As to the kind of experiment: Antibacterial activity against Acinetobacter baumannii A3-08 after 24 hrs by microdilution method. The settings on record: A3-08, 24 h. Type of series: functional.
The nature of series [18]: Chemical stability of compound at 50 to 500 mg/L at pH 0.18 after 24 hrs at 37 degC by LC-MS analysis. It is filed as physicochemical. Particulars: buffer, pH 0.18, 24 h.
In series [19] the test system is Pseudomonas aeruginosa. As to the kind of experiment: Antibacterial activity against Pseudomonas aeruginosa CCM 3955 after 24 hrs by microdilution method. It is filed as functional. The settings on record: CCM 3955, 24 h.
In series [20] the test system is Stenotrophomonas maltophilia. As to the kind of experiment: Antibacterial activity against Stenotrophomonas maltophilia S2-23 after 24 hrs by microdilution method. Type of series: functional. Particulars: S2-23, 24 h.
The subject of series [21] is Bacillus subtilis. The series can be described thus: Antibacterial activity against Bacillus subtilis assessed as inhibition of DNA synthesis at 2 mg/L after 50 mins by [3H]thymidine incorporation assay. Type of series: functional. Background: Incorporation of labelled thymidine or its analogues reports DNA synthesis.
The test system of series [22] is HepG2. As to the kind of experiment: Cytotoxicity against human HepG2 cells assessed as disruption of cell membrane integrity after 4 hrs by CytoTox-ONE-based assay. The settings on record: hepg2, 4 h.
For series [23], the system named is TERT-RPE1. As to the kind of experiment: Induction of apoptosis in human RPE1 cells assessed as caspase 3/7 activation up to 80 mg/L after 4 hrs by caspase-Glo 3/7 luminescent assay. Particulars: tert-rpe1, 4 h. It is filed as cell-based.
Series [24] has as its system Bacillus subtilis. The series can be described thus: Antibacterial activity against Bacillus subtilis assessed as inhibition of RNA synthesis at 2 mg/L after 50 mins by [3H]-uridine incorporation assay. It is filed as functional.
Series [25] concerns TERT-RPE1. The series can be described thus: Cytotoxicity against human RPE1 cells assessed as disruption of cell membrane integrity after 4 hrs by CytoTox-ONE-based assay. The settings on record: tert-rpe1, 4 h.
A short description of series [26]: Chemical stability of compound at 50 to 500 mg/L at pH 0.18 after 24 hrs at room temperature by LC-MS analysis. Type of series: physicochemical. Particulars: buffer, pH 0.18, 24 h.
Series [27] concerns Staphylococcus haemolyticus. The series can be described thus: Antibacterial activity against fluoroquinolne-resistant Staphylococcus haemolyticus 16568 after 24 hrs by microdilution method. Type of series: functional. Particulars: Staphylococcus haemolyticus, 16568, 24 h.
Series [28] has as its system HepG2. The series can be described thus: Cytotoxicity against human HepG2 cells assessed as reduction in cell viability after 48 hrs by ATPlite reagent based assay. The settings on record: hepg2, 48 h. Background: ATP-based viability assays read luminescence as a measure of living cells.
Series [29] deals with TERT-RPE1. As to the kind of experiment: Cytotoxicity against human RPE1 cells assessed as disruption of cell membrane integrity at >80 mg/L after 4 hrs by CytoTox-ONE-based assay. The settings on record: tert-rpe1, 4 h.
The next series concerns Salmonella enteritidis. The series can be described thus: Antibacterial activity against Salmonella enteritidis S2-25 after 24 hrs by microdilution method. Type of series: functional, Salmonella enterica subsp. enterica serovar Enteritidis. The settings on record: Salmonella enterica, S2-25, 24 h.
Series [30] is described as follows: Apparent permeability across apical to basolateral side in human Caco2 cells at 200 uM after 3 hrs by LC-MS analysis. It is filed as ADME, cell-based. The settings on record: caco-2, 3 h.
A short description of series [31]: Chemical stability of compound at 50 to 500 mg/L at pH 5 after 24 hrs at 37 degC by LC-MS analysis. Type of series: physicochemical. Particulars: buffer, pH 5, 24 h.
Series [32] can be described thus: Chemical stability of compound at 50 to 500 mg/L at pH 5 after 24 hrs at room temperature by LC-MS analysis. It is filed as physicochemical. Particulars: buffer, pH 5, 24 h.
Series [33] concerns Lipid bilayer. As to the kind of experiment: Binding affinity to DOPG large unilamellar vesicle assessed as Stern-Volmer quenching constant after 10 mins in presence of potassium iodide by fluorescence assay (reference value: 47.22 +/- 1.58 no_unit).
In series [34] the test system is Lipid bilayer. The series can be described thus: Binding affinity to DOPG large unilamellar vesicle assessed as blue shift in emission maximum at 5 mg/L after 10 mins by fluorescence assay relative to control.
The test system of series [35] is Lipid bilayer. The series can be described thus: Binding affinity to DOPG large unilamellar vesicle assessed as increase in fluorescence intensity at 5 mg/L after 10 mins by fluorescence assay relative to control.
Series [36] concerns Pseudomonas aeruginosa. The series can be described thus: microbe, parasite or virus in culture. The settings on record: CCM 3955, 24 h.
The subject of a further series is J774.A1. As to the kind of experiment: Cytotoxicity against mouse J774A.1 cells assessed as damage to cell membrane by measuring propidium iodide intake at 5 uM by spectrofluorometric analysis. Particulars: j774.a1, 5 µM. It is filed as cell-based.

Molecules are shown by their SMILES. Converted amounts (≈) assume the structure as drawn. The source made the active and inactive calls. No cut-off for these calls is given here.

As for `CCCCCCCCCCCCCCCOP(=O)(CCN(CCCN)CCCN)OC[C@H]1O[C@@H](n2ccc(=O)[nH]c2=O)[C@H](O)[C@@H]1O` (some centres undefined), the Stability entry in [1], in [7], in [18], in series [26], in series [31] and in series [32] was “Stable” each time. In addition, the inhibition result in the series with Bacillus subtilis [2], with Bacillus subtilis [5], with Bacillus subtilis [11], in the series with Bacillus subtilis [21] and with Bacillus subtilis [24] was “inactive” each time. Besides, the Activity is 20 to 35% with Lipid bilayer [3]; 29.1 mg/L in the series on BJ; 34.8 mg/L with TERT-RPE1 [9]; “Non-Toxic” in the series with HepG2 [17]; “Non-Toxic” in the series with HepG2 [22]; “Non-Toxic” in the series with TERT-RPE1 [23]. For the same compound, the Activity is 73.8 mg/L in the series on TERT-RPE1 [25], 33.2 mg/L with HepG2 [28] and “Non-Toxic” with TERT-RPE1 [29]. Further, the fold change (FC) with Lipid bilayer [4] amounted to 25. In the series with Lipid bilayer [6], the result was Active. The MIC in the series with Streptococcus agalactiae is 1.56 µg/mL (≈ 2.31 µM); with Staphylococcus aureus [8] it was 6.25 µg/mL (≈ 9.25 µM); with Burkholderia multivorans it was 50 µg/mL (≈ 74 µM); in the series with Staphylococcus aureus [10], 1.56 µg/mL (≈ 2.31 µM); against Bacillus subtilis [12], 3.13 µg/mL (≈ 4.63 µM); with Escherichia coli [13], 25 µg/mL (≈ 37 µM). For the same compound, the MIC against Escherichia coli [14] amounted to 6.25 µg/mL (≈ 9.25 µM); in [15], 3.13 µg/mL (≈ 4.63 µM); with Enterococcus faecalis it was 50 µg/mL (≈ 74 µM); with Pseudomonas aeruginosa [16], 6.25 µg/mL (≈ 9.25 µM); in the series with Enterococcus faecium, 6.25 µg/mL (≈ 9.25 µM); against Acinetobacter baumannii, 3.13 µg/mL (≈ 4.63 µM). The MIC worked out at 3.13 µg/mL (≈ 4.63 µM) in the series with Pseudomonas aeruginosa [19], 3.13 µg/mL (≈ 4.63 µM) in [20], 3.13 µg/mL (≈ 4.63 µM) in series [27] and 6.25 µg/mL (≈ 9.25 µM) against Salmonella enteritidis. Further, the permeability result in series [30] is “Impermeable”.
Consider `CCCCCCCCCCCCCCOP(=O)(CCN(CCCN)CCCN)OC[C@H]1O[C@@H](n2cc(-c3ccco3)c(=O)[nH]c2=O)[C@H](O)[C@@H]1O` (some centres undefined), for which the KSV in the series on Lipid bilayer [33] turned out to be 0.97. In addition, the Activity in the series on Lipid bilayer [34] came to 25 nm. The fold change (FC) in the series on Lipid bilayer [35] is 3.5.
With `O=C(O)c1cn(C2CC2)c2cc(N3CCNCC3)c(F)cc2c1=O` [CIPROFLOXACIN], the MIC in the series on Pseudomonas aeruginosa [36] worked out at 4 µg/mL (≈ 12.1 µM).
As for `CC[C@H](C)[C@H](NC(=O)CN)C(=O)NCC(=O)N[C@@H](C)C(=O)N[C@H](C(=O)N[C@@H](CC(C)C)C(=O)N[C@@H](CCCCN)C(=O)N[C@H](C(=O)N[C@@H](CC(C)C)C(=O)N[C@H](C(=O)N[C@H](C(=O)NCC(=O)N[C@@H](CC(C)C)C(=O)N1CCC[C@H]1C(=O)N[C@@H](C)C(=O)N[C@@H](CC(C)C)C(=O)N[C@H](C(=O)N[C@@H](CO)C(=O)N[C@@H](Cc1c[nH]c2ccccc12)C(=O)N[C@H](C(=O)N[C@@H](CCCCN)C(=O)N[C@@H](CCCNC(=N)N)C(=O)N[C@@H](CCCCN)C(=O)N[C@@H](CCCNC(=N)N)C(=O)N[C@@H](CCC(N)=O)C(=O)N[C@@H](CCC(N)=O)C(N)=O)[C@@H](C)CC)[C@@H](C)CC)[C@@H](C)O)[C@@H](C)O)C(C)C)C(C)C` [MELITTIN], the Activity result in the series on J774.A1 was “Toxic”.

For the origin of these results see ChEMBL document CHEMBL4038308, “Lipophosphonoxins II: Design, Synthesis, and Properties of Novel Broad Spectrum Antibacterial Agents” (J Med Chem, 2017).
